Measurements published in paper PMC6321145 (Molecules, 2018).

Key:
Aβ1–42 [1] = molecular target: T1, Aβ1–42 (Homo sapiens, UniProt P05067); experiment: Inhibition of Cu^2+-induced Aβ1–42 aggregation (ThT-binding assay); type: biochemical; details: [Aβ] = 20 μM, [Cu^2+] = 20 μM, [compound] = 40 μM; 37 °C, 24 h
T1 construct: Aβ1–42 (Sigma, St. Louis, MO, USA; counterion, NaOH) stock solution was prepared by dissolving Aβ1–42 peptide in ammonium hydroxide; purchased Sigma
Protocol: To investigate the ability of compound 6b1 to inhibit Cu^2+-induced Aβ1–42 aggregation, the ThT-binding assay was performed.
Aβ was diluted in […] (pH 6.6) with […]. The mixture of the peptide (10 μL, 20 μM, final concentration) with or without copper (10 μL, 20 μM, final concentration) and the test compound (10 μL, 40 μM, final concentration) was incubated at 37 °C for 24 h. The 30 μL of the sample was diluted to a final volume of 200 μL with 50 mM glycine-NaOH buffer (pH 8.0) containing thioflavin T (5 μM). The detection method was the same as that of self-induced Aβ aggregation experiment.

Aβ1–42 [2] = molecular target: T1, Aβ1–42; experiment: Inhibition of self-induced Aβ1–42 aggregation (ThT fluorescence assay); type: biochemical; details: for inhibition at 20 µM: inhibitor 20 μM, Aβ1–42 50 μM, ThT, 37 °C, 72 h, mean ± SD
Protocol: The formation and aggregation of Aβ1–42 in the brain leads to neurotoxicity in AD. In order to evaluate the activity of our new synthetic compounds to inhibit Aβ1–42 self-induced aggregation, the thioflavin (ThT) fluorescence assay was performed.
All ThT experiments were performed according to our previously published methods. Aβ1–42 (Sigma, St. Louis, MO, USA; counterion, NaOH) stock solution was prepared by dissolving Aβ1–42 peptide in ammonium hydroxide (1% v/v), and diluting with 20 mM phosphate buffer (pH 7.4) to 100 μM. The tested compounds were firstly dissolved in DMSO at a concentration of 10 mM, and then diluted with 20 mM phosphate buffer (pH 7.4) to 40 μM.
For the inhibition of self-induced Aβ1–42 aggregation. Aβ1–42 peptide (2 μL, 50 μM, final concentration) with the tested compound (2 μL, 20 μM, final concentration) or 20 mM phosphate buffer (2 μL) was incubated in 20 mM phosphate buffer (pH 7.4) at 37 °C for 72 h. After incubation, the samples were diluted to a final volume of 36 μL with 50 mM glycine-NaOH buffer (pH 8.5) containing 5 μM Thioflavin T. Fluorescence signal was measured (excitation wavelength 450 nm, emission wavelength 485 nm, and slit widths set to 5 nm) on a monochromator-based multimode microplate reader ([…] M1000, TECAN, Hombrechtikon, Switzerland), adapted for 384-well microtiter plates. […] Each compound was examined in triplicate.

SH-SY5Y cells = experiment: Cellular ROS detection (DCFH-DA) in SH-SY5Y cells treated with t-BuOOH; type: cell-based, human; details: compound 2.5 μM; 0.1 mM t-BuOOH; compared with Trolox
Protocol: To further investigate their antioxidant activity in SH-SY5Y cells, cellular ROS detection assay based on dichlorofluorescein diacetate (DCFH-DA) was performed. with Trolox and N-acetyl-L-cysteine (NAC) as reference compounds.
SH-SY5Y cells were maintained in Dulbecco’s modified Eagle’s medium (DEME) and supplemented with 1 mM glutamine, 10% fetal calf serum, 100 U/mL penicillin, and 100 μg/mL streptomycin. The cultures were maintained at 37 °C in a humidified incubator containing 5% CO2 and were passaged twice weekly.
The antioxidant activity of the compounds in SH-SY5Y cells were tested with the fluorescent probe (2′,7′-dichlorofluorescein diacetate, DCFH-DA) as reported with some variation. SH-SY5Y cells were sub-cultured in 96-well plates at a seeding density of 1 × 10^4 cells per well for 24 h, then the medium was removed, the tested compounds (2.5 μM) was added and incubated for another 24 h at 37 °C. After that, the cells were washed with PBS and incubated with 5 μM DCFH-DA in PBS at 37 °C in 5% CO2 for 30 min. Then DCFH-DA was removed, the cells were washed three times and incubated with 0.1 mM t-BuOOH in PBS for 30 min. After the incubation, the cell fluorescence from each well was measured at 485 nm excitation and 535 nm emission with a monochromator based multimode microplate reader ([…] M1000).

[3] = Cytotoxicity on SH-SY5Y cells (MTT); type: cell-based, human; details: human, SH-SY5Y neuroblastoma cells; MTT, 24 h; mean ± SEM of three measurements
Protocol: The cytotoxicity of our synthesized compounds was examined in human neuroblastoma SH-SY5Y cells. The cell viability was determined by using methyl thiazolyl tetrazolium (MTT) colorimetry, the cells were treated with different concentrations of compounds (0–100 μM). The result is shown in the Supplementary Materials (Table S1).
The cytotoxicities of the compounds were evaluated using the MTT assay. SH-SY5Y cells were subcultured in 96-well plates at a seeding density of 1 × 10^4 cells per well. After 24 h, the medium was removed and treated with different concentrations of tested compounds for 24 h at 37 °C. The survival of cells was determined with MTT assay. Then 80 μL of medium and 20 μL of MTT (0.5 mg/mL, final concentration) were added to each well and incubated for another 4 h. After the removal of MTT, the formazan crystals were dissolved in DMSO. The amount of formazan was measured using a microculture plate reader at the wavelength of 570 nm. Each concentration was performed in triplicate.

[4] = Oxygen radical absorbance capacity with fluorescein (ORAC-FL) assay
Protocol: Oxidative stress is another crucial event in AD pathogenesis. In order to determine antioxidant activities of our synthetic compounds, the oxygen radical absorbance capacity method with fluorescein (ORAC-FL) assay was performed. with Trolox (6-hydroxy-2,5,7,8-tetramethylchroman-2-carboxylic acid) as the standard, and their antioxidant activity was expressed as Trolox equivalents.
The antioxidant activities of the compounds in vitro were determined by the oxygen radical absorbance capacity fluorescein (ORAC-FL) assay. The tested compounds and (±)-6-hydroxy-2,5,7,8-tetramethylchroman-2-carboxylic acid (Trolox) were dissolved in DMSO at a concentration of 10 mM, and then diluted with 75 mM potassium phosphate buffer (pH 7.4) to 50 μM and 10 μM for use. The fluorescein (FL) stock solution (3.4 mM) was diluted with the same buffer to 136 nM. All the assays were conducted with 75 mM potassium phosphate bufffer (pH 7.4), and the final reaction mixture was 200 μL.
The mixture of compounds (or buffer) (20 μL) and fluorescein (FL, 120 μL) were incubated for 15 min at 37 °C in a black 96-well plate. Then 2,2′-azobis-(amidino-propane)-dihydrochloride (AAPH) solution (60 μL, 40 mM) was rapidly added to the reaction mixture. The fluorescence was recorded every 5 min for 240 min at 485 nm (excitation wavelength) and 535 nm (emission wavelength) (Varioskan Flash Multimode Reader, Thermo Scientific, Waltham, MA, USA), and each sample was prepared and measured for three times independently. […] The net AUC for a sample was calculated using the expression net AUC = AUCsample − AUCblank, The ORAC-FL value of each sample was calculated using the equation of net AUCsample/(AUCTrolox – AUCblank), which was expressed as Trolox equivalents.

Aβ1–42 fibrils = molecular target: T2, Aβ1–42 fibrils (Homo sapiens, UniProt P05067); experiment: TEM assay of Aβ1–42 fibrils; type: biochemical; details: compound 20 μM; 37 °C, 24 h
T2 construct: Aβ1–42 (Sigma, St. Louis, MO, USA; counterion, NaOH) stock solution was prepared by dissolving Aβ1–42 peptide in ammonium hydroxide; purchased Sigma
T2 sequence (P05067 672-713): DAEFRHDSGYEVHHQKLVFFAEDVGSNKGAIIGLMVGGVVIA
Protocol: To further complement the ThT binding assay, A transmission electron microscopy (TEM) assay was employed to monitor and clarify the effect of compound 6b1 on Aβ1−42 aggregation.
The ability of compound 6b1 to disaggregate self-induced Aβ1–42 aggregation fibrils was also investigated. Aβ1–42 fibrils were prepared by incubating fresh Aβ1–42 for 24 h at 37 °C, and the test compound was added to the sample and incubated for another 24 h at 37 °C. Then the sample was analyzed by ThT binding assay and TEM assay.
Aβ1–42 peptide (Sigma) was dissolved in 20 mM phosphate buffer (pH 7.4) at 4 °C to 100 μM before use.
Aβ1–42 was incubated at 37 °C for 24 h. Then, 40 μM tested compound was added and incubated at 37 °C for another 24 h. The final concentrations of Aβ1–42 and the compounds were 50 μM and 20 μM, respectively. After incubation, aliquots (5 μL) of the samples were placed on a carbon-coated copper/rhodium grid for 2 min at room temperature. Each grid was stained with uranyl acetate (1%, 5 μL) for 2 min. Excess staining solution was removed and the specimen was transferred for imaging with transmission electron microscopy (JEOL JEM-1400, Tokyo, Japan).

T1 sequence (P05067 672-713): as above

Row | SMILES | Inhibition of Cu^2+-induced Aβ aggregation (Aβ1–42 [1]) [%] | IC50 (Aβ1–42 [2]; ThT fluorescence method, mean ± SD of three experiments, read-out: IC50 against self-induced Aβ1–42 aggregation) [µM] | inhibition at 20 µM (Aβ1–42 [2]) [%] | melting point [°C] | Antioxidant activity in SH-SY5Y cells (ROS generation, DCFH-DA fluorescence) (SH-SY5Y cells) | IC50 at 24 h [3] [µM] | ORAC ([4]; compound 1 μM) | TEM: Aβ1–42 fibril formation in presence of compound (Aβ1–42 fibrils) | ORAC ([4]; compound 5 μM)
1 | Oc1c(I)cc(Cl)c2cccnc12 [CQ, clioquinol] | 83.6 | – | – | – | – | – | – | – | –
2 | CCN(CC)CCCNc1cc(/C=C/c2ccc(N(CC)CC)cc2)nc2ccccc12 [Compound 6a1, (E)-N^1-(2-(4-(Diethylamino)styryl)quinolin-4-yl)-N^3,N^3-diethylpropane-1,3-diamine] | – | 7.8 ± 0.4 | 90.2 ± 1.3 | 182.3 to 184 | more antioxidant activity than Trolox | 189 | 5.92 ± 0.03 μmol of Trolox equivalents/μmol of tested compounds | – | –
3 | Oc1ccc(/C=C/c2cc(O)cc(O)c2)cc1 [Res, resveratrol, reference compound] | 71.2 | – | 77.2 ± 1.1 | – | – | – | – | a few thick fibrils | –
4 | CCN(CC)CCCNc1cc(/C=C/c2ccc(N3CCOCC3)cc2)nc2ccccc12 [Compound 6a4, (E)-N^1,N^1-Diethyl-N^3-(2-(4-morpholinostyryl)quinolin-4-yl)propane-1,3-diamine] | – | – | 87.9 ± 1.1 | 172.5 to 174.3 | a little weaker antioxidant activity than Trolox | 145.2 ± 0.9 | 4.16 ± 0.04 μmol of Trolox equivalents/μmol of tested compounds | – | 4.52 ± 0.03 μmol of Trolox equivalents/μmol of tested compounds
